These are literature values, as cited in patent publication US20130122120A1, “INSECTICIDAL COMPOSITIONS AND METHODS” (priority 2011, published 2013).

Each structure is given as a SMILES string.

In one data set the test system is aphids. The settings on record: nymphs and adults.
The conditions of data set [1]: applied directly to skin or consumed.

Consider `CCCCCCCCCCCCOS(=O)(=O)[O-].[Na+]` [Sodium lauryl sulfate, Sodium dodecyl sulfate], for which, where the note is “at the CMC”, the aggregation number entry is listed as “about 62”. Moreover, the “critical micelle concentration (CMC)” value (pure water at 25° C.) is 8.2 mM. Besides, the efficacy against aphids entry in the data set on aphids is “some limited efficacy for treating aphids, killing the nymphs, but merely delays death in adults”. In addition, the “Ames (bacterial mutation) test result” value with bacterial mutation was “negative”. Besides, in data set [1], the carcinogenicity entry is on record as “not carcinogenic”.
